# Reference: patent US20150203812A1, “Inhibitors of Voltage Gated Ion Channels” (priority 2014, published 2015)
# Target: T1, human Hv1 channel (Homo sapiens, UniProt Q96D96)
# T1 construct: expressed in transfected cells; host or cells: Xenopus oocytes (cRNA injection, pGEMHE vector)
# T1 sequence (Q96D96 1-273): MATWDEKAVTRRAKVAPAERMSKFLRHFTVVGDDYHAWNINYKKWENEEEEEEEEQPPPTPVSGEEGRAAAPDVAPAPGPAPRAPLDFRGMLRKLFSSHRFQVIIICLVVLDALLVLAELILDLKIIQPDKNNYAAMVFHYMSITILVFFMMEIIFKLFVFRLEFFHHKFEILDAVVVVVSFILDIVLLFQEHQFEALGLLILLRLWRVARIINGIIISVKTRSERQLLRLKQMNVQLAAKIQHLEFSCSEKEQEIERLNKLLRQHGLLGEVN
# Experiment: Patch-clamp assay of Hv1 proton transport inhibition in Xenopus oocytes expressing human Hv1
# Type: cell-based
# Settings: 4 μM
# Description: Plasmids were linearized with either NheI or SphI restriction enzymes (New England Biolabs) before in vitro transcription. RNA synthesis was carried out with a T7 mMessage mMachine transcription kit (Ambion). […] The linearized plasmid was transcribed with SP6 RNA polymerase. cRNAs were injected in Xenopus oocytes (50 nl per cell, 0.3-1.5 μg/μl) 1-3 days before the electro-physiological measurements. Cells were kept at 18° C. in ND96 medium containing 96 mM NaCl, 2 mM KCl, 1.8 mM CaCl2, 1 mM MgCl2, 10 mM HEPES, 5 mM pyruvate, 100 μg/ml gentamycin (pH 7.2).
# The bath solution contained 100 mM 2-(N-morpholino)ethanesulphonic acid (MES), 30 mM tetraethylammonium (TEA) methanesulfonate, 5 mM TEA chloride, 5 mM ethyleneglycol-bis(2-ami-noethyl)-N,N,N0,N0-tetra-acetic acid (EGTA), adjusted to pH 6.0 with TEA hydroxide. For recordings carried out in the absence of pH gradient (pHi=pHo=6.0), the pipette solution had the same composition of the bath solution. Some of the measurements were performed in the presence of a pH gradient (pHi=6.0, pHo=7.5). In these cases the extracellular solution contained 100 mM 4-(2-hydroxyethyl)-1-piperazineethanesulfonic acid (HEPES), 40 mM TEA methanesulfonate, 5 mM TEA chloride, adjusted to pH 7.5 with TEA hydroxide. Native proton currents in BV-2, RAW264.7, and THP-1 were measured in whole-cell configuration with an intracellular solution containing: 90 mM TEA methanesulfonate, 100 mM MES, 2 mM MgCl2, 2 mM EGTA, adjusted to pH 6.0 with TEA hydroxide. The extracellular solution contained: 85 mM TEA methanesulfonate, 100 mM HEPES, 3 mM CaCl2, 1 mM EGTA, adjusted to pH 7.5 with TEA hydroxide. All measurements were performed at 22° C.±2° C. Pipettes had 2-4 M access resistance. Current traces were filtered at 1 kHz, sampled at 5 kHz and analyzed with Clampfit10.2 (Molecular Devices) and Origin8.1 (OriginLab).
row,inhibition at 4 µM,SMILES
1,57 ± 10%,N=C(N)Nc1nc2ccc([N+](=O)[O-])cc2[nH]1 [5-nitro-2-guanidinobenzimidazole]

# Same assay, conditions: 40 μM
row,inhibition at 40 µM,SMILES
1,28 ± 7%,"Nc1nnc(Nc2ccc(Cl)cc2)[nH]1 [N(3)-(4-chlorophenyl)-4H-1,2,4-triazole-3,5-diamine]"

# Same assay, conditions: 200 μM
Hv1 proton transport % inhibition,inhibition at 200 µM,SMILES
21.5 ± 2.7%,,NC(N)=Nc1nc(CSCCC(N)=NS(N)(=O)=O)cs1 [3-([2-(diaminomethyleneamino)thiazol-4-yllmethylthio)-N′-sulfamoylpropanimidamide]
,21.2 ± 5.1%,Nc1ncc[nH]1 [2-aminoimidazole]
68.2 ± 2.2%,,"CCOC(=O)Cc1sc(NC(=N)N)nc1C [ethyl (2-[[amino(imino)methyl]amino1-4-methyl-1,3-thiazol-5-yl)acetate]"
,0.5 ± 1%,CC(=O)N(C(=N)NC(=N)N)c1ccccc1 [N-(guanidino-iminomethyl)-N-phenylacetamide]
,31%,"CCOC(=O)c1sc(NC(=N)N)nc1C [ethyl 2-[[amino(imino)methyl]amino]-4-methyl-1,3-thiazole-5-carboxylate]"
,2 ± 1%,Nc1ncccn1 [2-aminopyrimidine]
,82.6 ± 2.25%,N=C(N)Nc1nc2ccccc2[nH]1 [2-guanidinobenzimidazole]
,81%,"N=C(N)Nc1nc2ccccc2s1 [1-(1,3-benzothiazol-2-yl)guanidine]"
,29.8 ± 2.5%,Nc1nc2ccccc2[nH]1 [2-aminobenzimidazole]
,73 ± 3%,CC(C)OC(=O)CCCCC(=NNC(=N)N)c1ccccc1 [isopropyl 6-(guanidinoimino)-6-phenylhexanoate]
,6.8 ± 2.25%,"CN(C)C(=N)NC(=N)N [1,1-dimethylbiguanide]"
,31.7 ± 0.7%,Cc1nc(NC(=N)N)nc2ccccc12 [2-guanidino-4-methylquinazoline]
,4.3 ± 2.3%,"N=C(N)NN [aminoguanidine, amino-guanidine]"
,1 ± 1%,"N=C(N)Nc1nc2ccccc2o1 [1-(1,3-benzoxazol-2-yl)guanidine]"
67 ± 6%,,COc1ccc(CCN2CCC(Nc3nc4ccccc4n3Cc3ccc(F)cc3)CC2)cc1 [1-[(4-fluorophenyl)methyl]-N-[1-[2-(4-methoxyphenyl)ethyl]-4-piperidylibenzoimidazol-2-amine]
,39.4 ± 3.4%,"CCOC(=O)c1nc(NC(=N)N)sc1C [ethyl 2-[[amino(imino)methyl]amino]-5-methyl-1,3-thiazole-4-carboxylate]"

SMILES,Hv1 proton transport % inhibition,inhibition at 200 µM
N=C(N)NCCCCN [agmatine],,18.5 ± 1.5%

# Same assay, conditions: 600 μM
row,Hv1 proton transport % inhibition,SMILES
1,0%,"CN1CC(=O)NC1=N [Creatinine, reference compound]"
